Reference: patent US6559101B2, “N- (5, 7-dimethoxy [1, 2, 4] triazolo [1, 5-a] pyrimidin-2-yl) arylsulfonamide compounds and their use as herbicides” (Dow AgroSciences LLC, priority 2000, dated 2003)

Experiments:
Format in all cases: in vivo
[1] = system: morningglory (Ipomoea hederacea); assay: Preemergence herbicidal activity; settings: scored after 3 weeks, 0 no injury, 100 complete kill or no germination
Protocol: (§1) The soil matrix was contained in plastic pots with a surface area of 161 square centimeters. When required to ensure good germination and healthy plants, a fungicide treatment and/or other chemical or physical treatment was applied. A weighed amount, determined by the highest rate to be tested, of each test compound was placed in a 20 mL glass vial and was dissolved in 8 mL of a 97:3 v/v (volume/volume) mixture of acetone and dimethyl sulfoxide to obtain concentrated stock solutions. […] The stock solutions obtained were diluted with a 99.9:0.1 mixture of water and Tween® 155 surfactant (ethoxylated sorbitan fatty acid ester) to obtain application solutions of known concentration. The solutions containing the highest concentration to be tested were prepared by diluting 4 mL aliquots of the stock solution with 8.5 mL of the mixture and lower concentrations were prepared by dilution of appropriate smaller portions of the stock solution. A 2.5 mL aliquot of each solution of known concentration was sprayed evenly onto the soil of each seeded pot using a Cornwall 5.0 mL glass syringe fitted with a TeeJet TN-3 hollow cone nozzle to obtain thorough coverage of the soil in each pot. Control pots were sprayed in the same manner with the aqueous mixture. A highest application rate of 4.48 kg/ha is achieved when 50 mg of test compound is employed. The treated pots and control pots were placed in a greenhouse with an approximately 15 hr photoperiod which was maintained at about 23-29° C. during the day and 22-28° C. during the night. Nutrients and water were added on a regular basis and supplemental lighting was provided with overhead metal halide 1000 Watt lamps as necessary. The water was added by top-irrigation. After 3 weeks the condition of the test plants that germinated and grew as compared with that of the untreated plants that germinated and grew was determined visually and scored on a scale of 0 to 100 percent where 0 corresponds to no injury and 100 corresponds to complete kill or no germination.

[2] = system: barnyardgrass (Echinochloa crus-galli); assay: Preemergence herbicidal activity; settings: scored after 3 weeks, 0 no injury, 100 complete kill or no germination
Protocol: as §1

[3] = system: blackgrass (Alopecurus myosuroides); assay: Preemergence herbicidal activity; settings: scored after 3 weeks, 0 no injury, 100 complete kill or no germination
Protocol: as §1

[4] = system: wild oats (Avena fatua); assay: Preemergence herbicidal activity; settings: scored after 3 weeks, 0 no injury, 100 complete kill or no germination
Protocol: as §1

[5] = system: wild poinsettia (Euphorbia heterophylla); assay: Preemergence herbicidal activity; settings: scored after 3 weeks, 0 no injury, 100 complete kill or no germination
Protocol: as §1

[6] = system: crabgrass (Digitaria sanguinalis); assay: Preemergence herbicidal activity; settings: scored after 3 weeks, 0 no injury, 100 complete kill or no germination
Protocol: as §1

[7] = system: pigweed (Amaranthus retroflexus); assay: Preemergence herbicidal activity; settings: scored after 3 weeks, 0 no injury, 100 complete kill or no germination
Protocol: as §1

[8] = system: giant foxtail (Setaria faberi); assay: Preemergence herbicidal activity; settings: scored after 3 weeks, 0 no injury, 100 complete kill or no germination
Protocol: as §1

[9] = system: Rox orange sorghum (Sorghum bicolor); assay: Preemergence herbicidal activity; settings: scored after 3 weeks, 0 no injury, 100 complete kill or no germination
Protocol: as §1

[10] = system: cocklebur (Xanthium strumarium); assay: Preemergence herbicidal activity; settings: scored after 3 weeks, 0 no injury, 100 complete kill or no germination
Protocol: as §1

[11] = system: velvetleaf (Abutilion theophrasti); assay: Preemergence herbicidal activity; settings: scored after 3 weeks, 0 no injury, 100 complete kill or no germination
Protocol: as §1

[12] = system: lambsquarters (Chenopodium album); assay: Preemergence herbicidal activity; settings: scored after 3 weeks, 0 no injury, 100 complete kill or no germination
Protocol: as §1

[13] = system: morningglory (Ipomoea hederacea); assay: Postemergence herbicidal activity; settings: scored after 2 weeks, 0 no injury, 100 complete kill
Protocol: (§2) Seeds of the desired test plant species were planted in Grace-Sierra MetroMix® 306 planting mixture, which typically has a pH of 6.0 to 6.8 and an organic matter content of about 30 percent, in plastic pots with a surface area of 64 square centimeters. When required to ensure good germination and healthy plants, a fungicide treatment and/or other chemical or physical treatment was applied. The plants were grown for 7-21 days in a greenhouse with an approximately 15 hr photoperiod which was maintained at about 23-29° C. during the day and 22-28° C. during the night. Nutrients and water were added on a regular basis and supplemental lighting was provided with overhead metal halide 1000 Watt lamps as necessary. The plants were employed for testing when they reached the first or second true leaf stage. A weighed amount of each test compound, determined by the highest rate to be tested, was placed in a 20 mL glass vial and was dissolved in 4 mL of a 97:3 v/v (volume/volume) mixture of acetone and dimethyl sulfoxide to obtain concentrated stock solutions. […] The concentrated stock solutions obtained were diluted with an aqueous mixture containing acetone, water, iso-propyl alcohol, dimethyl sulfoxide, Atplus 411F crop oil concentrate, and Triton X-155 surfactant (methylenebisdiamyl phenoxy polyethoxy ethanol) in a 48.5:39:10:1.5:1.0:0.02 v/v ratio to obtain spray solutions of known concentration. The solutions containing the highest concentration to be tested were prepared by diluting 2 mL aliquots of the stock solution with 13 mL of the mixture and lower concentrations were prepared by dilution of appropriate smaller portions of the stock solution. Approximately 1.5 mL aliquots of each solution of known concentration were sprayed evenly onto each of the test plant pots using a Devilbiss atomizer driven by compressed air pressure of 2 to 4 psi (140 to 280 kiloPascals) to obtain thorough coverage of each plant. Control plants were sprayed in the same manner with the aqueous mixture. In this test an application rate of 1 ppm results in the application of approximately 1 g/ha. The treated plants and control plants were placed in a greenhouse as described above and watered by sub-irrigation to prevent wash-off of the test compounds. After 2 weeks the condition of the test plants as compared with that of the untreated plants was determined visually and scored on a scale of 0 to 100 percent where 0 corresponds to no injury and 100 corresponds to complete kill.

[14] = system: blackgrass (Alopecurus myosuroides); assay: Postemergence herbicidal activity; settings: 31.3 ppm; scored after 2 weeks; 0 no injury, 100 complete kill
Protocol: as §2

[15] = system: wild buckwheat (Polygonum convolvulus); assay: Postemergence herbicidal activity; settings: scored after 2 weeks, 0 no injury, 100 complete kill
Protocol: as §2

[16] = system: wild oats (Avena fatua); assay: Postemergence herbicidal activity; settings: scored after 2 weeks, 0 no injury, 100 complete kill
Protocol: as §2

[17] = system: chickweed (Stellaria media); assay: Postemergence herbicidal activity; settings: scored after 2 weeks, 0 no injury, 100 complete kill
Protocol: as §2

[18] = system: pigweed (Amaranthus retroflexus); assay: Postemergence herbicidal activity; settings: scored after 2 weeks, 0 no injury, 100 complete kill
Protocol: as §2

[19] = system: giant foxtail (Setaria faberi); assay: Postemergence herbicidal activity; settings: scored after 2 weeks, 0 no injury, 100 complete kill
Protocol: as §2

[20] = system: Rox orange sorghum (Sorghum bicolor); assay: Postemergence herbicidal activity; settings: scored after 2 weeks, 0 no injury, 100 complete kill
Protocol: as §2

[21] = system: cocklebur (Xanthium strumarium); assay: Postemergence herbicidal activity; settings: scored after 2 weeks, 0 no injury, 100 complete kill
Protocol: as §2

[22] = system: velvetleaf (Abutilion theophrasti); assay: Postemergence herbicidal activity; settings: scored after 2 weeks, 0 no injury, 100 complete kill
Protocol: as §2

[23] = system: lambsquarters (Chenopodium album); assay: Postemergence herbicidal activity; settings: scored after 2 weeks, 0 no injury, 100 complete kill
Protocol: as §2

[24] = system: viola (Viola tricolor); assay: Postemergence herbicidal activity; settings: scored after 2 weeks, 0 no injury, 100 complete kill
Protocol: as §2

For `COc1cc(OC)n2nc(NS(=O)(=O)c3c(C(F)(F)C(F)(F)F)ccnc3OC)nc2n1` [Compound 18], the “Preemergence herbicidal activity IPOHE” value ([1]; 35 g/Ha) was 90%, the “Preemergence herbicidal activity ECHCG” value ([2]; 35 g/Ha) was 90% and the “Preemergence herbicidal activity ALOMY” value ([3]; 35 g/Ha) was 100%. For the same molecule, the “Preemergence herbicidal activity AVEFA” value ([4]; 35 g/Ha) was 70%, the “Preemergence herbicidal activity EPHHL” value ([5]; 35 g/Ha) was 70% and the “Preemergence herbicidal activity DIGSA” value ([6]; 35 g/Ha) was 100%. The “Preemergence herbicidal activity AMARE” value ([7]; 35 g/Ha) was 100%, the “Preemergence herbicidal activity SETFA” value ([8]; 35 g/Ha) was 100% and the “Preemergence herbicidal activity SORBI” value ([9]; 35 g/Ha) was 100%. For the same molecule, the “Preemergence herbicidal activity XANST” value ([10]; 35 g/Ha) was 70%, the “Preemergence herbicidal activity ABUTH” value ([11]; 35 g/Ha) was 95% and the “Preemergence herbicidal activity CHEAL” value ([12]; 35 g/Ha) was 100%. For the same molecule, the “Postemergence herbicidal activity IPOHE” value ([13]; 31.3 ppm) was 70%, the “Postemergence herbicidal activity ALOMY” value [14] was 65% and the “Postemergence herbicidal activity POLCO” value ([15]; 31.3 ppm) was 60%. For the same molecule, the “Postemergence herbicidal activity AVEFA” value ([16]; 31.3 ppm) was 50%, the “Postemergence herbicidal activity STEME” value ([17]; 31.3 ppm) was 100% and the “Postemergence herbicidal activity AMARE” value ([18]; 31.3 ppm) was 100%. For the same molecule, the “Postemergence herbicidal activity SETFA” value ([19]; 31.3 ppm) was 85%, the “Postemergence herbicidal activity SORBI” value ([20]; 31.3 ppm) was 90% and the “Postemergence herbicidal activity XANST” value ([21]; 31.3 ppm) was 85%. The “Postemergence herbicidal activity ABUTH” value ([22]; 31.3 ppm) was 90%, the “Postemergence herbicidal activity CHEAL” value ([23]; 31.3 ppm) was 95% and the “Postemergence herbicidal activity VIOTR” value ([24]; 31.3 ppm) was 80%.

For `CCc1ccc(OC)c(S(=O)(=O)Nc2nc3nc(OC)cc(OC)n3n2)c1` [Compound 9], the “Preemergence herbicidal activity IPOHE” value ([1]; 70 g/Ha) was 30%, the “Preemergence herbicidal activity ECHCG” value ([2]; 70 g/Ha) was 0% and the “Preemergence herbicidal activity ALOMY” value ([3]; 70 g/Ha) was 0%. For the same molecule, the “Preemergence herbicidal activity AVEFA” value ([4]; 70 g/Ha) was 0%, the “Preemergence herbicidal activity EPHHL” value ([5]; 70 g/Ha) was 0% and the “Preemergence herbicidal activity DIGSA” value ([6]; 70 g/Ha) was 0%. For the same molecule, the “Preemergence herbicidal activity AMARE” value ([7]; 70 g/Ha) was 40%, the “Preemergence herbicidal activity SETFA” value ([8]; 70 g/Ha) was 20% and the “Preemergence herbicidal activity SORBI” value ([9]; 70 g/Ha) was 0%. The “Preemergence herbicidal activity XANST” value ([10]; 70 g/Ha) was 0%, the “Preemergence herbicidal activity ABUTH” value ([11]; 70 g/Ha) was 20% and the “Preemergence herbicidal activity CHEAL” value ([12]; 70 g/Ha) was 30%. The “Postemergence herbicidal activity IPOHE” value ([13]; 62.5 ppm) was 10%, the “Postemergence herbicidal activity POLCO” value ([15]; 62.5 ppm) was 50% and the “Postemergence herbicidal activity AVEFA” value ([16]; 62.5 ppm) was 20%. For the same molecule, the “Postemergence herbicidal activity STEME” value ([17]; 62.5 ppm) was 50%, the “Postemergence herbicidal activity AMARE” value ([18]; 62.5 ppm) was 70% and the “Postemergence herbicidal activity SETFA” value ([19]; 62.5 ppm) was 30%. The “Postemergence herbicidal activity SORBI” value ([20]; 62.5 ppm) was 30%, the “Postemergence herbicidal activity XANST” value ([21]; 62.5 ppm) was 70% and the “Postemergence herbicidal activity ABUTH” value ([22]; 62.5 ppm) was 30%. For the same molecule, the “Postemergence herbicidal activity CHEAL” value ([23]; 62.5 ppm) was 80% and the “Postemergence herbicidal activity VIOTR” value ([24]; 62.5 ppm) was 50%.
